For assay [1], the target named is T1, human M2 receptor (human Muscarinic receptor subtype 2) (Homo sapiens, UniProt P08172).
T1 construct: purchased Perkin-Elmer RBHM2M; host or cells: membranes from CHO cells expressing the cloned receptor
T1 sequence (P08172 1-466): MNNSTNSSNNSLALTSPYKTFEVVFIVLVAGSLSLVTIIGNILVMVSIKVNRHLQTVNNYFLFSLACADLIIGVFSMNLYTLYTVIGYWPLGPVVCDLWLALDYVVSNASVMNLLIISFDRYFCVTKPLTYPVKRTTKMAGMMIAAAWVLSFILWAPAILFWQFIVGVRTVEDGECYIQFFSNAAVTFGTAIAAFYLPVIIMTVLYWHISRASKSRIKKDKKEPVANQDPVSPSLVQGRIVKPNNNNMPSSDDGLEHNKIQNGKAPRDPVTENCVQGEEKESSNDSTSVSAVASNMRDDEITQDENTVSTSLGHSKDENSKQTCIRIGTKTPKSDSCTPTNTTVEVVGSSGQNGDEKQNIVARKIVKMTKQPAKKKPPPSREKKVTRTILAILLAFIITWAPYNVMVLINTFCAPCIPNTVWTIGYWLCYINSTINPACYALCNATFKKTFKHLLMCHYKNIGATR
The assay is described as follows: hM2 receptor GTPγS binding. Particulars: CHO membranes, [35S]GTPγS binding. The format is biochemical. On the procedure: Membranes produced from Chinese hamster ovary cells (CHO) expressing the cloned human M2 receptor (human Muscarinic receptor subtype 2, gene bank access NM_000739), are obtained from Perkin-Elmer (RBHM2M). The membranes are thawed at 37° C., passed 3 times through a 23-gauge blunt-end needle, diluted in the GTPγS binding buffer (50 mM Hepes, 20 mM NaOH, 100 mM NaCl, 1 mM EDTA, 5 mM MgCl2, pH 7.4, 100 μM DTT). The EC50, IC50 and Emax of the compounds of the invention are evaluated from 10-point dose-response curves (three fold concentration range) done in 60 μl in 384-well non-specific binding surface plate (Corning). Ten microliters from the dose-response curves plate (5× concentration) are transferred to another 384 well plate containing 25 μl of the following: 5 μg of hM2 membranes, 500 μg of Flashblue beads (Perkin-Elmer) and GDP 25 μM. An additional 15 μl containing 3.3× (60,000 dpm) of GTPγ^35S (0.4 nM final) are added to the wells resulting in a total well volume of 50 μl. Basal and maximal stimulated [^35S]GTPγS binding are determined in absence and presence of 30 μM final of acetylcholine agonist. The membranes/beads mix are pre-incubated for 15 minutes at room temperature with 25 μM GDP prior to distribution in plates (12.5 μM final). The reversal of acetylcholine-induced stimulation (2 μM final) of [^35S]GTPγS binding is used to assay the antagonist properties (IC50) of the compounds. The plates are incubated for 60 minutes at room temperature then centrifuged at 400 rpm for 5 minutes. The radioactivity (cpm) is counted in a Trilux (Perkin-Elmer).
Values of EC50, IC50 and Emax are obtained using sigmoidal fits of a non-linear curve-fitting program (XLfit version 4.2.2 Excel add-in version 4.2.2 build 18 math 1Q version 2.1.2 build 18) of percent stimulated [^35S]GTPγS binding vs. log(molar ligand). All pEC50 and pIC50 values are reported as arithmetic means±standard error of mean of ‘n’ independent experiments.

The target in assay [2] is T2, hM5 (human Muscarinic receptor subtype 5) (Homo sapiens, UniProt P08912).
T2 construct: expressed in transfected cells; host or cells: CHO cells (Chinese hamster ovary cells, ATCC)
T2 sequence (P08912 1-532): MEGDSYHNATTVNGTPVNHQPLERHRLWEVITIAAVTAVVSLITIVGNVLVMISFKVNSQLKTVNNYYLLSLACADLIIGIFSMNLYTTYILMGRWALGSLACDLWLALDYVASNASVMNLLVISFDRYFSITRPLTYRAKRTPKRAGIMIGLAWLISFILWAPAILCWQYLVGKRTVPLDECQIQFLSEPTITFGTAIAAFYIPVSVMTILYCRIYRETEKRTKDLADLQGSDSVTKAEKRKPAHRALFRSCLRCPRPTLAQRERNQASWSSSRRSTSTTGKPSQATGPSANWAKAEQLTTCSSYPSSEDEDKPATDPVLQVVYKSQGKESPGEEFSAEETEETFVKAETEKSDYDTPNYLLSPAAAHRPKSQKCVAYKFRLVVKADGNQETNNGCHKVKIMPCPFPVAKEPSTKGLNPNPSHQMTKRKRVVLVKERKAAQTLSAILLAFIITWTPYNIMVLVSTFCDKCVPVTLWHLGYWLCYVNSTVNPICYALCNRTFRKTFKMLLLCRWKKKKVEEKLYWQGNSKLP
Description: Human M5 calcium mobilization FLIPR assay. The format is cell-based. The conditions noted are these: receptor expressed in CHO cells, intracellular Ca2+ release. On the procedure:
The compound activity in the present invention (EC50 or IC50) is measured using a 384 plate-based imaging assay that monitors drug induced intracellular Ca^2+ release in whole cells. Activation of hM1 (human Muscarinic receptor subtype 1, gene bank access NM_000738), rM1 (rat Muscarinic receptor subtype 1, gene bank access NM_080773), hM3 (human Muscarinic receptor subtype 3, gene bank access NM_000740NM_000740) and hM5 (human Muscarinic receptor subtype 5, gene bank access NM_0121258), receptors expressed in CHO cells (Chinese hamster ovary cells, ATCC) is quantified in a Molecular Devices FLIPR IITM instrument as an increase in fluorescent signal. Inhibition of hM3 and hM5 by compounds is determined by the decrease in fluorescent signal in response to 2 nM acetylcholine activation.
Prior to experiment, the cell culture medium is removed from the plates by inversion. […] Plates are incubated at 37° C. for 60 minutes prior to start the experiment. The incubation is terminated by washing the cells four times in assay buffer, leaving a residual 25 μl buffer per well. Cell plates are then transferred to the FLIPR, ready for compound additions.
The day of experiment, acetylcholine and compounds are diluted in assay buffer in three-fold concentration range (10 points serial dilution) for addition by FLIPR instrument. For all calcium assays, a baseline reading is taken for 10 seconds followed by the addition of 12.5 μl of compounds, resulting in a total well volume of 37.5 μl. Data is collected every second for 60 pictures and then every 6 seconds for 20 pictures prior to the addition of agonist. For hM3 and hM5, before agonist addition, a second baseline reading is taken for 10 seconds followed by the addition of 12.5 μl of agonist or buffer, producing a final volume of 50 μl. After agonist stimulation, the FLIPR continues to collect data every second for 60 pictures and then every 6 seconds for 20 pictures. The fluorescence emission is read using filter 1 (emission 510-570 nm) by the FLIPR on board CCD camera.
Calcium mobilization output data are calculated as the maximal relative fluorescence unit (RFU) minus the minimal value for both compound and agonist reading frame (except for hM1 and rM1 using only the maximal RFU). Data are analyzed using sigmoidal fits of a non-linear curve-fitting program (XLfit version 4.2.2 Excel add-in version 4.2.2 build 18 math 1Q version 2.1.2 build 18). All pEC50 and pIC50 values are reported as arithmetic means±standard error of mean of ‘n’ independent experiments.
A general note: Calcium assays in cells follow changes in intracellular calcium, usually with a dye or a luminescent sensor.

This is an account of results in patent US20090221567A1, “MUSCARINIC RECEPTOR AGONISTS, COMPOSITIONS, METHODS OF TREATMENT THEREOF, AND PROCESSES FOR PREPARATION THEREOF 177” (ASTRAZENECA AB, priority 2008, published 2009).

SMILES strings stand for the structures. Bounds are passed on as bounds.

For orientation: EC50 means the concentration that produces a half-maximal response. On to `CC(C)OC(=O)N1CCC(N2CCC(N3C(=O)NC[C@H]4CCCC[C@@H]43)CC2)CC1` [Example 2, Propan-2-yl 4-[4-[(4aR,8aS)-2-oxo-3,4,4a,5,6,7,8,8a-octahydroquinazolin-1-yl]-1-piperidyl]piperidine-1-carboxylate], for which the results for the EC50 in assay [1] and in assay [2] were greater than 1.2 µM and greater than 49.2 µM, respectively.

In the case of `Cn1cccc1C(=O)N1CCC(N2CCC(N3C(=O)CO[C@H]4CCCC[C@@H]43)CC2)CC1` [Example 12, (1S,6S)-10-[1-[1-(1-methylpyrrole-2-carbonyl)-4-piperidyl]-4-piperidyl]-7-oxa-10-azabicyclo[4.4.0]decan-9-one], the EC50 was greater than 30 µM in assay [1] and greater than 40 µM in assay [2].

With `CC(C)OC(=O)N1CCC(C)(N2CCC(N3C(=O)NC[C@H]4CCCC[C@@H]43)CC2)CC1` [Example 8, Propan-2-yl 4-[4-[(4aR,8aS)-2-oxo-3,4,4a,5,6,7,8,8a-octahydroquinazolin-1-yl]-1-piperidyl]-4-methyl-piperidine-1-carboxylate], the results for the EC50 in assay [1] and in assay [2] were greater than 30 µM and greater than 40 µM, respectively.

Consider `CC(C)OC(=O)N1CCC(N2CCC(N3C(=O)CO[C@@H]4CCCC[C@H]43)CC2)CC1` [Example 14, Propan-2-yl 4-[4-[(1R,6R)-9-oxo-7-oxa-10-azabicyclo[4.4.0]dec-10yl]-1-piperidyl]piperidine-1-carboxylate], for which the EC50 in assay [1] is greater than 30 µM; in assay [2], greater than 40 µM.

Regarding `CCOC(=O)N1CCC(N2CCC(N3C(=O)OC[C@H]4CCCC[C@@H]43)CC2)CC1` [Example 15, Ethyl 4-[4-[(1S,6S)-9-oxo-8-oxa-10-azabicyclo[4.4.0]dec-10-yl]-1-piperidyl]piperidine-1-carboxylate], the EC50 in assay [1] is greater than 12 µM; in assay [2] it was greater than 40 µM.

As to `CCOC(=O)N1CCC(C)(N2CCC(N3C(=O)CO[C@H]4CCCC[C@@H]43)CC2)C1` (single isomer, unassigned) [Example 19], the EC50 in assay [1] and in assay [2] was greater than 40 µM each time.

As to `Cc1ccccc1C(=O)N1CCC(N2CCC(N3C(=O)CO[C@H]4CCCC[C@@H]43)CC2)CC1` [Example 11, (1S,6S)-10-[1-[1-(2-methylbenzoyl)-4-piperidyl]-4-piperidyl]-7-oxa-10-azabicyclo[4.4.0]decan-9-one], the EC50 is greater than 30 µM in assay [1] and greater than 40 µM in assay [2].

Consider `CCOC(=O)N1CCC(N2CCC(N3C(=O)CO[C@H]4CCCC[C@@H]43)CC2)CC1` [Example 9, Ethyl 4-[4-[(1S,6S)-9-oxo-7-oxa-10-azabicyclo[4.4.0]dec-10-yl]-1-piperidyl]piperidine-1-carboxylate], for which the EC50 stood at 2.5 µM in assay [1] and 0.0977 µM in assay [2].

Molecule `CCOC(=O)N1CCC(N2CCC(N3C(=O)NC[C@H]4CCCC[C@@H]43)CC2)CC1` [Example 1, Ethyl 4-[4-[(4aR,8aS)-2-oxo-3,4,4a,5,6,7,8,8a-octahydroquinazolin-1-y]-1-piperidyl]piperidine-1-carboxylate] came in with an EC50 in assay [1] of 0.38 µM.

`O=C(C1CC1)N1CCC(N2CCC(N3C(=O)NC[C@H]4CCCC[C@@H]43)CC2)CC1` [Example 3, (4aR,8aS)-1-[1-[1-(cyclopropanecarbonyl)-4-piperidyl]-4-piperidyl]-3,4,4a,5,6,7,8,8a-octahydroquinazolin-2-one]: the EC50 is greater than 12 µM in assay [1] and greater than 31.1 µM in assay [2].

On to `CCOC(=O)N1CC[C@H](N2CCC(N3C(=O)CO[C@H]4CCCC[C@@H]43)CC2)C1` [Example 13, Ethyl (3S)-3-[4-[(1S,6S)-9-oxo-7-oxa-10-azabicyclo[4.4.0]dec-10-yl]-1-piperidyl]pyrrolidine-1-carboxylate], for which the EC50 was greater than 30 µM in assay [1] and greater than 40 µM in assay [2].

Turning to `CCOC(=O)N1CCC(C)(N2CCC(N3C(=O)NC[C@H]4CCCC[C@@H]43)CC2)CC1` [Example 7, Ethyl 4-[4-[(4aR,8aS)-2-oxo-3,4,4a,5,6,7,8,8a-octahydroquinazolin-1-yl]-1-piperidyl]-4-methyl-piperidine-1-carboxylate], the EC50 in assay [1] was 0.07 µM; in assay [2] it was 0.168 µM.

As to `CCOC(=O)N1CCC(C)(N2CCC(N3C(=O)CO[C@H]4CCCC[C@@H]43)CC2)C1` (single isomer, unassigned) [Example 18], the EC50 in assay [1] was 3.7 µM; in assay [2] it was greater than 40 µM.

With `CC(C)OC(=O)N1CCC(N2CCC(N3C(=O)N(C)C[C@H]4CCCC[C@@H]43)CC2)CC1` [Example 6, Propan-2-yl 4-[4-[(4aR,8aS)-3-methyl-2-oxo-4a,5,6,7,8,8a-hexahydro-4H-quinazolin-1-yl]-1-piperidyl]piperidine-1-carboxylate], the EC50 in assay [1] is greater than 30 µM; in assay [2], greater than 40 µM.

`CC(C)OC(=O)N1CCC(N2CCC(N3C(=O)CO[C@H]4CCCC[C@@H]43)CC2)CC1` [Example 10, Propan-2-yl 4-[4-[(1S,6S)-9-oxo-7-oxa-10-azabicyclo[4.4.0]dec-10-yl]-1-piperidyl]piperidine-1-carboxylate]: the values for the EC50 in assay [1] and in assay [2] were greater than 6.6 µM and greater than 40 µM, respectively.

In the case of `Cc1ccccc1C(=O)N1CCC(N2CCC(N3C(=O)NC[C@H]4CCCC[C@@H]43)CC2)CC1` [Example 4, (4aR,8aS)-1-[1-[1-(2-methylbenzoyl)-4-piperidyl]-4-piperidyl]-3,4,4a,5,6,7,8,8a-octahydroquinazolin-2-one], the EC50 was greater than 30 µM in assay [1] and greater than 49.2 µM in assay [2].
